Measurements: patent publication US20080269337A1, “Method for the enhancing biocidal activity” (priority 2007, published 2008)

Key:
[1] = test system: aqueous industrial systems; details: U.S. Pat. Nos. 5,607,597 and 5,736,056; cited from earlier work
B. cereus ATCC14579 = test: B. cereus in synthetic medium, serial dilution and plating; type: cell-based; details: 20 mg/l bistridecylsulfosuccinate with 1 or 2 mg/l isothiazolinone
Excerpt: The spore forming bacterium B. cereus is of particular concern because of its pathogenic properties. Most incidents of food poisoning attributed to the genus Bacillus are caused by B. cereus. B. cereus is a common concern in production of dairy products. There is particular concern about this organism in powered milk based products for infants. This is a concern not only to producers of these goods but also to the manufacturers of packaging and containers for such products. […] A culture of B. cereus ATCC14579 was treated with isothiazolinone alone and isothiazolinone with bistridecylsulfosuccinate One ml of bacteria from an overnight culture was used to innocculate shake flasks containing 50 mls of fresh synthetic medium. The synthetic medium (as described previously) was dosed with isothiazolinone at one or two mg/l concentration; or isothiazolinone in conjunction with 20 mg/l bistridecylsulfosuccinate. Cultures were maintained shaking at 37° C. then carried through serial dilution and plated at 3 and 5 hour time points.

B. subtilus (ATCC23059) = test: B. subtilus in synthetic medium, serial dilution and plating; type: cell-based
Description: By definition a potentiator compound will not, by itself, kill or inhibit the bacterial population. The non-toxicity of bistridecylsulfosuccinate to B. subtilus is illustrated in Table 4. One ml of bacteria from an overnight culture was used to innocculate shake flasks containing 50 mls of fresh synthetic medium. The synthetic medium (as described previously) was augmented with increasing amounts of bistridecylsulfosuccinate. Serial dilution and plating was carried out to compare the efficacy of each treatment. The culture of B. subtilus was grown in the presence of 0, 5, 10, and 20 mg/l bistridecylsulfosuccinate (Btdss). Plating was carried out at 2.5 hours and 5 hours of incubation. […] The control had no treatment.

Compound | Effect on efficacy of isothiazolinone [1] | Effect on efficacy of isothiazolinone against B. cereus (B. cereus ATCC14579) | B. subtilus count in synthetic medium (B. subtilus (ATCC23059); 5 mg/l Btdss alone, 2.4 Hour) | B. subtilus count in synthetic medium (B. subtilus (ATCC23059); 5 mg/l Btdss alone, 5 Hour) | B. subtilus count in synthetic medium (B. subtilus (ATCC23059); 10 mg/l Btdss alone, 2.4 Hour) | B. subtilus count in synthetic medium (B. subtilus (ATCC23059); 10 mg/l Btdss alone, 5 Hour) | B. subtilus count in synthetic medium (B. subtilus (ATCC23059); 20 mg/l Btdss alone, 2.4 Hour) | B. subtilus count in synthetic medium (B. subtilus (ATCC23059); 20 mg/l Btdss alone, 5 Hour) | Growth of treated cultures relative to the untreated control (B. subtilus (ATCC23059); 5, 10, and 20 mg/l bistridecylsulfosuccinate alone) | Toxicity to B. subtilus (B. subtilus (ATCC23059); alone, at concentrations at least as high as 20 mg/l)
CCCCC(CC)COC(=O)CC(C(=O)OCC(CC)CCCC)S(=O)(=O)O (stereo not drawn) [dioctyl, dioctylsulfosuccinate] | enhance the efficacy of isothiazolinone |  |  |  |  |  |  |  |  | 
bistridecylsulfosuccinate [Btdss] | loss of efficacy | greatly enhanced the efficacy of isothiazolinone | 3.40 × 10^6 | 4.00 × 10^6 | 2.8 × 10^6 | 3.90 × 10^7 | 3.00 × 10^6 | 3.6 × 10^7 | increased growth relative to the untreated control | non-toxic
dinonylsulfosuccinates | enhance the efficacy of isothiazolinone |  |  |  |  |  |  |  |  | 
